Reference: patent US20250312271A1, “GSK-3-BETA INHIBITOR-LOADED POLYMERIC SCAFFOLDS FOR THE TREATMENT OF MUSCLE INJURIES” (Rutgers, The State University of New Jersey, priority 2024, published 2025)
“Also recorded” adds a separate entry of the source.

How the values were obtained:
[1] = system: human skeletal muscle cells (hSkMCs); assay: Morphological assessment of lipid droplets in hSkMCs cultured with scaffolds; type: cell-based; settings: drug in both GelMA and PLGA layers
Description: Human skeletal muscle cells ([…]) (5,000 cells/cm^2) were cultured in ADM and myogenic differentiation media (myodiff) with scaffolds at 200 rpm, with and without the drug in GelMA and PLGA layers to evaluate the relationship between drug concentrations and lipid formation resulting from the drug's release from the scaffold. PrestoBlueTM assay assessed cell viability.

ADSCs [2] = assay: Live/Dead quantification of ADSCs; type: cell-based
Description: (§1) Rosiglitazone (AVANDIA®) was added to the adipogenic medium at a final concentration of 1 μM before use. A PrestoBlue™ assay and a LIVE/DEAD viability/cytotoxicity kit were utilized to assess cell viability. Live and dead cell counts were obtained using a Celigo Image Cytometer. Cells were fixed in 4% PFA (paraformaldehyde) and stained with Oil Red O to measure lipid formation as a sign of adipocyte differentiation. Lipid formation was quantified by assessing the absorbance of Oil Red O at 515 nm.

[3] = CHIR99021 release from polymeric scaffolds (HPLC); type: physicochemical
Description: In this study, GSK3β inhibitor-loaded scaffolds were fabricated via electrospinning and hydrogel formation. Pluronic F127 (0.08 g) was dissolved in 1.0 ml hexafluoroisopropanol (HFP) before adding the GSK3β inhibitor. Separately, poly(lactic-co-glycolic acid) PLGA (50:50) (16%, w/v) was dissolved in HFP. The polymer solutions (PLGA/CHIR-F127 or PLGA/CHIR) were electrospun at a flow rate of 1.0 ml/h with a 14 cm distance from the 18G needle tip to the cylindrical drum, and voltages +11/−2 kV were applied. Samples (13.5 mm diameter) punched out from scaffolds were immersed in GelMA (gelatin methacrylate) (5%, w/v)/CHIR solution for 20 seconds, then crosslinked using Lithium Phenyl (2,4,6-Trimethylbenzoyl) Phosphinate (LAP, 0.5% w/v) for 2 minutes on each side under 405 nm UV. Scaffolds comprise a rapidly degrading layer of GelMA for inhibitor delivery to the injury site, and a slow-degrading layer of PLGA to provide prolonged support for tissue regeneration.
Samples were submerged in water on a plate shaker at 400 rpm, with 200 μL replaced by fresh water at each time point.

hMSCs [4] = assay: PrestoBlue assay of hMSCs; type: cell-based, human; settings: day 7, 14, 18, 0.5, 1.0, 1.5 μM
Description: as §1

[5] = system: bone marrow-derived human mesenchymal stem cells (hMSCs); assay: Oil Red O quantification of lipid formation in adipogenic hMSC cultures; type: cell-based
Description: as §1

PPARγ = settings: 3T3-L1 preadipocytes; cited from earlier work
ADSCs [6] = assay: PrestoBlue assay of ADSCs; type: cell-based; settings: day 7, 14, 21, 0.5, 1.0, 1.5 μM
Description: as §1

hMSCs [7] = assay: Live/Dead quantification of hMSCs; type: cell-based, human; settings: day 7, 14, 18, 0.5, 1.0, 1.5 μM
Description: as §1

[8] = system: adipose-derived stem cells (ADSCs); assay: Oil Red O quantification of lipid formation in adipogenic ADSC cultures; type: cell-based
Description: as §1

3T3-L1 preadipocytes = settings: cited from earlier work

Cc1cnc(-c2cnc(NCCNc3ccc(C#N)cn3)nc2-c2ccc(Cl)cc2Cl)[nH]1 [CHIR99021]
lipid droplet suppression, CHIR99021 in both GelMA and PLGA layers [1]: enhances this effect | viability (Live/Dead) (ADSCs [2]; day 7, 14, 21, 0.5, 1.0, 1.5 μM): does not negatively alter | percent of dead cells, ADSCs in GM versus in 1.5 μM CHIR (ADSCs [2]; day 21, 1.5 μM CHIR): No significant difference | release kinetics profile ([3]; from polymeric scaffolds (PLGA nanofibers), in water): first-order | release ([3]; within 72 hours, from polymeric scaffolds): ~70% | cellular metabolic activity (PrestoBlue) (hMSCs [4]): does not negatively alter | difference in lipid formation in groups treated with CHIR99021 ([5]; hMSCs at 18 day, One-Way ANOVA, P=0.0000018): significant difference | lipid droplet formation (Oil Red O) ([5]; hMSCs in ADM, CHIR99021 0.5, 1.0, 1.5 μM): decreases | PPARγ expression (PPARγ): induced | cellular metabolic activity (PrestoBlue) (ADSCs [6]): does not negatively alter | viability (Live/Dead) (hMSCs [7]): does not negatively alter | difference in lipid formation in groups treated with CHIR99021 ([8]; ADSCs at 21 days, One-Way ANOVA, P=0.00003): significant difference | lipid droplet formation (Oil Red O) ([8]; ADSCs in ADM, CHIR99021 0.5, 1.0, 1.5 μM): decreases; also recorded: inhibited lipid formation | differentiation of 3T3-L1 preadipocytes (Oil Red O staining) (3T3-L1 preadipocytes): blocked the differentiation
